Data from ChEMBL document CHEMBL4406815, “Natural product derived promising anti-MRSA drug leads: A review” (Bioorg Med Chem, 2019).
≈ marks a conversion by molar mass, not a printed value.

Assays:
Staphylococcus aureus [1] = assay: Antibacterial activity against methicillin-resistant Staphylococcus aureus ATCC 33591; assay type: functional
Staphylococcus aureus [2] = assay: Antibacterial activity against methicillin-resistant Staphylococcus aureus ATCC 43300; assay type: functional
Staphylococcus aureus [3] = assay: Antibacterial activity against methicillin-resistant Staphylococcus aureus CGMCC 1.12409; assay type: functional
Staphylococcus aureus [4] = assay: Antibacterial activity against methicillin-resistant Staphylococcus aureus; assay type: functional
Erythrocyte = assay: Hemolytic activity against human erythrocytes; assay type: ADME, cell-based
Staphylococcus aureus [5] = assay: Antibacterial activity against methicillin-resistant Staphylococcus aureus TISTR 1466 by two-fold serial dilution method; assay type: functional
Staphylococcus aureus [6] = assay: Antibacterial activity against methicillin-resistant Staphylococcus aureus SK1 by two-fold serial dilution method; assay type: functional
Staphylococcus aureus [7] = assay: Antibacterial activity against methicillin resistant Staphylococcus aureus BAA 1762 after 24 to 72 hrs by two-fold serial dilution method; assay type: functional
Staphylococcus aureus [8] = assay: Antibacterial activity against methicillin-sensitive Staphylococcus aureus ATCC 25923 after 24 to 72 hrs by two-fold serial dilution method; assay type: functional
Staphylococcus aureus [9] = assay: Bactericidal activity against methicillin-resistant Staphylococcus aureus; assay type: functional
[10] = Cytotoxicity against African green monkey Vero cells assessed as reduction in cell viability by MTT assay; assay type: cell-based; conditions: chlorocebus sabaeus, read-out: MIC
Staphylococcus aureus [11] = assay: Antimicrobial activity against Staphylococcus aureus ATCC 6538 after 24 hrs by colony counting method; assay type: functional; conditions: ATCC 6538, 24 h
Staphylococcus aureus [12] = assay: Antibacterial activity against methicillin-resistant Staphylococcus aureus ATCC 43300 after 18 hrs; assay type: functional, organism-based; conditions: ATCC 43300, 18 h
[13] = Inhibition of methicillin-resistant Staphylococcus aureus pyruvate kinase
HT-29 = assay: Cytotoxicity against human HT-29 cells assessed as reduction in cell viability after 24 hrs by MTS assay; assay type: functional, cell-based; conditions: HT-29, 24 h

SMILES: CCCCCCC(C)/C=C(\C)C(=O)O[C@@]1(C)C(=O)C2=COC(c3c(C)cccc3O)=CC2=C(Cl)C1=O (stereo not given in full)
- MIC (Staphylococcus aureus [1]): 3.13 to 6.25 µg/mL (≈ 6.1 to 12.2 µM)
- MIC (Staphylococcus aureus [2]): 3.13 to 6.25 µg/mL (≈ 6.1 to 12.2 µM)

SMILES: CCCCCCC(C)/C=C(\C)C(=O)O[C@@]1(C)C(=O)C2=COC(C3=C(C)CC(O)CC3=O)=CC2=C(Cl)C1=O (stereo not given in full)
- MIC (Staphylococcus aureus [1]): 3.13 to 6.25 µg/mL (≈ 5.89 to 11.8 µM)
- MIC (Staphylococcus aureus [2]): 3.13 to 6.25 µg/mL (≈ 5.89 to 11.8 µM)

SMILES: CC1=C[C@H]2c3c(O)c(O)c4oc5cc(O)cc(O)c5c(=O)c4c3[C@H](c3cc(O)c(O)c4oc5cc(O)cc(O)c5c(=O)c34)[C@H]2C(C)(C)C1
- MIC (Staphylococcus aureus [2]): 3.9 µg/mL (≈ 5.98 µM)
- MIC (Staphylococcus aureus [3]): 3.9 µg/mL (≈ 5.98 µM)

SMILES: COc1cc(OC)c(C2COc3c(cc(/C=C/C(=O)c4ccco4)c4c3C=CC(C)(C)O4)C2)cc1/C=C/C(=O)c1ccco1 (stereo not given)
- MIC (Staphylococcus aureus [4]): 12.5 µg/mL

SMILES: COc1c(OCCCCN)cc2oc3cc(OCCCCN)c(CC=C(C)C)c(O)c3c(=O)c2c1CC=C(C)C
- MIC (Staphylococcus aureus [4]): 1560 to 3120 µM
- MHC (Erythrocyte): 80.2 µg/mL

SMILES: C=C(C)/C=C/c1c(C(=O)OC)cc(O)c2[nH]c3ccccc3c12
- MIC (Staphylococcus aureus [5]): 4 µg/mL (≈ 13 µM)

SMILES: CN[C@H](CC(C)C)C(=O)N[C@H]1C(=O)N[C@@H](CC(N)=O)C(=O)N[C@H]2C(=O)N[C@H]3C(=O)N[C@H](C(=O)N[C@H](C(=O)O)c4cc(O)cc(O)c4-c4cc3ccc4O)[C@H](O)c3ccc(c(Cl)c3)Oc3cc2cc(c3O[C@@H]2O[C@H](CO)[C@@H](O)[C@H](O)[C@H]2O[C@H]2C[C@](C)(N)[C@H](O)[C@H](C)O2)Oc2ccc(cc2Cl)[C@H]1O [VANCOMYCIN]
- MIC (Staphylococcus aureus [4]): 1.25 µg/mL

SMILES: C=C(C)C1Cc2c(cc(OC)c3[nH]c4ccccc4c23)C(=O)O1 (stereo not given) [CLAUSAMINE B]
- MIC (Staphylococcus aureus [5]): 8 µg/mL (≈ 26 µM)
- MIC (Staphylococcus aureus [6]): 0.25 µg/mL (≈ 0.813 µM)

SMILES: CCCCOc1c(OC)cc(/C=C2\SC(=O)NC2=O)c2c1CN1CCc3cc4c(cc3C1C2)OCO4 (stereo not given)
- MIC (Staphylococcus aureus [4]): 8 µM

SMILES: COC(=O)/C=C/C(=O)c1ccc(Cl)cc1
- MIC (Staphylococcus aureus [7]): 0.35 to 0.75 µg/mL (≈ 1.56 to 3.34 µM)
- MIC (Staphylococcus aureus [8]): 0.35 to 0.75 µg/mL (≈ 1.56 to 3.34 µM)

SMILES: COc1ccc2c(c1OC)C(O)N(C)c1c-2ccc2cc3c(cc12)OCO3 (stereo not given)
- MBC (Staphylococcus aureus [9]): 1.95 to 62.5 µg/mL (≈ 5.34 to 171 µM)
- MIC (Staphylococcus aureus [4]): 0.49 to 15.6 µg/mL

SMILES: COc1ccc2cc1Oc1ccc(cc1)C[C@H]1c3cc(c(OC)cc3CCN1C)Oc1c(O)c(OC)cc3c1[C@H](C2)N(C)CC3 [FANGCHINOLINE]
- MIC (Staphylococcus aureus [9]): 256 to 1020 µg/mL (≈ 421 to 1680 µM)
- MIC (Staphylococcus aureus [4]): 6 to 128 µg/mL

SMILES: CCCC(=O)C1=C(O)C(C)(C)C(O)=C(Cc2c(O)c(C)c(OC)c(C(=O)CCC)c2O)C1=O
- MCC [10]: 48.1 µg/mL
- MIC (Staphylococcus aureus [11]): 15 to 62 µg/mL (≈ 32.6 to 135 µM)

SMILES: COc1c(-c2ccc(O)c(O)c2)oc2cc(O)cc(O)c2c1=O [3-O-METHYLQUERCETIN]
- IC50 (Staphylococcus aureus [12]): 6.4 µM

SMILES: COc1ccc2cc1Oc1ccc(cc1)C[C@H]1c3cc(c(OC)cc3CCN1C)Oc1c(OC)c(OC)cc3c1[C@H](C2)N(C)CC3 [FANCHININ]
- MIC (Staphylococcus aureus [9]): 256 to 1020 µg/mL (≈ 411 to 1640 µM)
- MIC (Staphylococcus aureus [4]): 6 to 128 µg/mL

SMILES: O=C1NC[C@@H](c2c[nH]c3cc(Br)ccc23)N[C@H]1c1c[nH]c2cc(Br)ccc12 (relative stereo) [CIS-3,4-DIHYDROHAMACANTHIN B]
- IC50 [13]: 0.016 to 0.06 µM
- MIC (Staphylococcus aureus [4]): 12.5 µg/mL

SMILES: O=c1cc(-c2ccc(O)c(O)c2)oc2cc(O)cc(O)c12 [LUTEOLIN]
- IC50 (HT-29): 45 µM

SMILES: CCCCCCC(C)/C=C(\C)C(=O)O[C@@]1(C)C(=O)C=C2C=C(c3c(C)cccc3O)OC=C2C1=O (stereo not given in full)
- MIC (Staphylococcus aureus [1]): 3.13 to 6.25 µg/mL (≈ 6.54 to 13.1 µM)
- MIC (Staphylococcus aureus [2]): 3.13 to 6.25 µg/mL (≈ 6.54 to 13.1 µM)
